The record followed here is patent US11712438B2, “Phenyl derivatives as PGE2 receptor modulators” (IDORSIA PHARMACEUTICALS LTD, priority 2017, dated 2023).

SMILES strings stand for the structures.

Targets include EP2 (Homo sapiens, UniProt P43116); PTRGER4 (EP4) (Homo sapiens, UniProt P35408); EP4 (Homo sapiens, UniProt P35408); PTGER2 (EP2) (Homo sapiens, UniProt P43116).
What all share (assay): cell-based

EP2, sequence (P43116 whole entry): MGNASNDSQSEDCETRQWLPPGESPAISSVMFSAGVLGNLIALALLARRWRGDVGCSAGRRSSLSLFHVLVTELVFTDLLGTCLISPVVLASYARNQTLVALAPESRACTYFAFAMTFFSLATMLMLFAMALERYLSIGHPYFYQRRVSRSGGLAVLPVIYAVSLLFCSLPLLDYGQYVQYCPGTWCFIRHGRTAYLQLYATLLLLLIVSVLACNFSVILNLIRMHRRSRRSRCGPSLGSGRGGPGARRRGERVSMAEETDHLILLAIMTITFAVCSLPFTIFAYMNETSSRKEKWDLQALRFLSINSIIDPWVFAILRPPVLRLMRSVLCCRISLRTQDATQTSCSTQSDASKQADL
PTGER2 (EP2), sequence (P43116 whole entry): as above
EP4, sequence (P35408 whole entry): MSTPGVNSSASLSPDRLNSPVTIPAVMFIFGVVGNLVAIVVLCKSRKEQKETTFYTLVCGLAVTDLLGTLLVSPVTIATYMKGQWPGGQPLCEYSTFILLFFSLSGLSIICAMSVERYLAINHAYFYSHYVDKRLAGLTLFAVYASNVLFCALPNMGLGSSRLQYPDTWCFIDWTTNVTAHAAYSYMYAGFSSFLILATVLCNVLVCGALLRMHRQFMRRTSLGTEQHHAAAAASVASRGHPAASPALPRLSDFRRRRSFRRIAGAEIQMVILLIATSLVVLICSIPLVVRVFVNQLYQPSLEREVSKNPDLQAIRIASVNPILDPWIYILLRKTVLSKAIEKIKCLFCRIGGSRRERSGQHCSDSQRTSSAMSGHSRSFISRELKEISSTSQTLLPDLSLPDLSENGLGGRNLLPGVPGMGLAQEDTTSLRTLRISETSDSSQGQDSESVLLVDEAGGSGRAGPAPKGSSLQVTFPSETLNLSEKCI
PTRGER4 (EP4), sequence (P35408 whole entry): as above

Regarding `CCOc1cc(-c2cc(NCCc3ccc(Br)cc3OC)ncn2)sc1-c1noc(=O)[nH]1` [Example 126, 3-(5-{6-[2-(4-Bromo-2-methoxy-phenyl)-ethylamino]-pyrimidin-4-yl}-3-ethoxy-thiophen-2yl)-[1,2,4]oxadiazol-5(4H)-one], the IC50 at EP2 was determined as 74 nM; against PTRGER4 (EP4) it was 7 nM; at EP4 it was 20 nM; at PTGER2 (EP2) it was 22 nM.
For `CCOc1cc(-c2cc(NCCc3c(F)cc(Br)cc3F)nc(C)n2)sc1-c1noc(=O)[nH]1` [Example 156, 3-(5-{6-[2-(4-Bromo-2,6-difluoro-phenyl)-ethylamino]-2-methyl-pyrimidin-4-yl}-3-ethoxy-thiophen-2-yl)-[1,2,4]oxadiazol-5(4H)-one] the same measures were 28 nM, 31 nM, 16 nM and 9 nM.
In the case of `CNc1cc(-c2cc(NCCc3c(F)cc(Br)cc3F)ncn2)ccc1C(=O)NCCOC` [Example 277, 4-{6-[2-(4-Bromo-2,6-difluoro-phenyl)-ethylamino]-pyrimidin-4-yl}-N-(2-methoxy-ethyl)-2-methylamino-benzamide], the IC50 against EP2 was 221 nM; against PTRGER4 (EP4), 68 nM; on EP4, 241 nM; at PTGER2 (EP2), 74 nM.
In the same order, the values of `CCOc1cc(-c2cc(NCCc3ccc(OC)cc3OC)ncn2)sc1-c1noc(=O)[nH]1` [Example 116, 3-(5-{6-[2-(2,4-Dimethoxy-phenyl)-ethylamino]-pyrimidin-4-yl}-3-ethoxy-thiophen-2-yl)-[1,2,4]oxadiazol-5(4H)-one] are 14 nM, 5 nM, 8 nM and 10 nM.
For `CCOc1cc(-c2cc(NCCc3ccc(Cl)cc3Cl)ncn2)sc1C(=O)O` [Example 66, 5-{6-[2-(2,4-Dichloro-phenyl)-ethylamino]-pyrimidin-4-yl}-3-ethoxy-thiophene-2-carboxylic acid] the same measures were 27 nM, 133 nM, 53 nM and 16 nM.
For `CCOc1cc(-c2cc(NCCc3ccccc3F)ncn2)sc1C(=O)O` [Example 56, 3-Ethoxy-5-{6-[2-(2-fluoro-phenyl)-ethylamino]-pyrimidin-4-yl}-thiophene-2-carboxylic acid] the same measures were 512 nM, 3030 nM, 775 nM and 717 nM.
As to `CCOc1cc(-c2cc(NCCc3cc(Br)ccc3OC)ncn2)sc1-c1noc(=O)[nH]1` [Example 120, 3-(5-{6-[2-(5-Bromo-2-methoxy-phenyl)-ethylamino]-pyrimidin-4-yl}-3-ethoxy-thiophen-2yl)-[1,2,4]oxadiazol-5(4H)-one], the IC50 was 13 nM against EP2, 21 nM against PTRGER4 (EP4), 69 nM on EP4 and 35 nM at PTGER2 (EP2).
For `CCOc1cc(-c2cc(NCCc3cc(F)c(C(F)F)cc3OC)ncn2)sc1C(=O)O` [Example 185, 5-{6-[2-(4-Difluoromethyl-5-fluoro-2-methoxy-phenyl)-ethylamino]-pyrimidin-4-yl}-3-ethoxy-thiophene-2-carboxylic acid] the same measures were 41 nM, 8 nM, 6 nM and 51 nM.
In the same order, the values of `CCOc1cc(-c2cc(NCCc3c(F)cc(Br)cc3F)ncn2)ccc1C(=O)O` [Example 180, 4-{6-[2-(4-Bromo-2,6-difluoro-phenyl)-ethylamino]-pyrimidin-4-yl}-2-ethoxy-benzoic acid] are 52 nM, 674 nM, 221 nM and 119 nM.
For `CCOc1cc(-c2cc(NCCc3ccc(Br)cc3)ncn2)sc1-c1nnn[nH]1` [Example 131, [2-(4-Bromo-phenyl)-ethyl]-{6-[4-ethoxy-5-(1H-tetrazol-5-yl)-thiophen-2-yl]-pyrimidin-4-yl}-amine] the same measures were 54 nM, 3 nM, 11 nM and 18 nM.
Turning to `CCn1cc(-c2cc(NCCc3c(F)cc(Br)cc3F)ncn2)cc1-c1noc(=O)[nH]1` [Example 278], the IC50 against EP2 came to 150 nM; against PTRGER4 (EP4), 42 nM; against EP4, 89 nM; at PTGER2 (EP2) it was 64 nM.
Take `CCOc1cc(F)ccc1CCNc1cc(-c2cc(OCC)c(-c3noc(=O)[nH]3)s2)ncn1` [Example 95, 3-(3-Ethoxy-5-{6-[2-(2-ethoxy-4-fluoro-phenyl)-ethylamino]-pyrimidin-4-yl}-thiophen-2-yl)-[1,2,4]oxadiazol-5(4H)-one]: the IC50 on EP2 amounted to 15 nM; against PTRGER4 (EP4), 59 nM; on EP4, 166 nM; at PTGER2 (EP2) it was 30 nM.
For `CCOc1cc(-c2cc(NCCc3c(F)cc(Br)cc3F)ncn2)ccc1-c1noc(=O)[nH]1` [Example 234, 3-(4-{6-[2-(4-Bromo-2,6-difluoro-phenyl)-ethylamino]-pyrimidin-4-yl}-2-ethoxy-phenyl)-[1,2,4]oxadiazol-5(4H)-one] the same measures were 93 nM, 49 nM, 23 nM and 77 nM.
For `CCOc1ccccc1CCNc1cc(-c2cc(OCC)c(-c3noc(=O)[nH]3)s2)ncn1` [Example 102, 3-(3-Ethoxy-5-{6-[2-(2-ethoxy-phenyl)-ethylamino]-pyrimidin-4-yl}-thiophen-2-yl)-[1,2,4]oxadiazol-5(4H)-one] the same measures were 17 nM, 91 nM, 122 nM and 34 nM.
For `O=c1[nH]c(-c2ccc(-c3cc(NCCc4c(F)cc(Br)cc4F)ncn3)cn2)no1` [Example 289, 3-(5-{6-[2-(4-Bromo-2,6-difluoro-phenyl)-ethylamino]-pyrimidin-4-yl}-pyridin-2-yl)-[1,2,4]oxadiazol-5(4H)-one] the same measures were 234 nM, 308 nM, 320 nM and 80 nM.
Consider `CCOc1cc(-c2cc(NCCc3cc(Br)ccc3SC)ncn2)sc1-c1noc(=O)[nH]1` [Example 275, 3-(5-{6-[2-(5-Bromo-2-methylsulfanyl-phenyl)-ethylamino]-pyrimidin-4-yl}-3-ethoxy-thiophen-2-yl)-[1,2,4]oxadiazol-5(4H)-one], for which the IC50 is 163 nM against EP2, 90 nM against PTRGER4 (EP4), 18 nM at EP4 and 125 nM at PTGER2 (EP2).
Take `Cc1ccc(CCNc2cc(-c3cc(C(F)(F)F)c(C(=O)O)s3)ncn2)c(C)c1` [Example 64, 5-{6-[2-(2,4-Dimethyl-phenyl)-ethylamino]-pyrimidin-4-yl}-3-trifluoromethyl-thiophene-2-carboxylic acid]: the IC50 against EP2 is 244 nM; against PTRGER4 (EP4), 205 nM; on EP4, 38 nM; against PTGER2 (EP2) it was 316 nM.
As to `CCOc1cc(-c2cc(NCCc3c(F)cc(Br)cc3F)ncn2)sc1/C=C/C(=O)O` [Example 47, (E)-3-(5-{6-[2-(4-Bromo-2,6-difluoro-phenyl)-ethylamino]-pyrimidin-4-yl}-3-ethoxy-thiophen-2yl)-acrylic acid], the IC50 against EP2 came out at 129 nM; against PTRGER4 (EP4), 11 nM; on EP4, 85 nM; against PTGER2 (EP2) it was 50 nM.
